In data set [1] the test system is Conduct Disorder, Childhood Onset, Moderate Severity and Attention Deficit Hyperactivity Disorder (ADHD), Combined Type. The experiment in a line: Case report: patient with Conduct Disorder and ADHD treated with successive drugs. The text has this:
A person was diagnosed with ‘Conduct Disorder, Childhood Onset, Moderate Severity’ and ‘Attention Deficit Hyperactivity Disorder (ADHD), Combined Type’ (DSM-IV diagnostic criteria).

Data set [2] can be described thus: Drug level printed in brackets after the dose in the case report. The settings on record: valproate 750 mg.
Protocol: In addition, they were given lithium at gradually increasing doses up to 1125 mg/day (1.7 ng/mL).

Turning to `COC(=O)C(c1ccccc1)C1CCCCN1` (centres unmarked) [methylphenidate], in data set [1] (methylphenidate taken before the amphetamine-based product and imipramine), the “clinical response (earlier treatment)” value is listed as “eventually became ineffective”.
In turn, `CCCC(CCC)C(=O)O` [Valproate] showed a drug level in data set [2] of 0.115 µg/mL.
Turning to `OCCOCCN1CCN(C2=Nc3ccccc3Sc3ccccc32)CC1` [Quetiapine, 11-(4-[2-(2-hydroxyethoxy)ethyl]-1-piperazinyl)dibenzo[b,f][1.4]thiazepine], the “clinical response after 90 days” value in data set [1] (after 90 days on quetiapine 1000 mg/day and amphetamine-based product 45 mg/day) was “complete resolution of previous symptoms”. Further, the “clinical response (psychiatric symptoms)” value in data set [1] (quetiapine 1000 mg/day (400 mg morning, 600 mg evening) with amphetamine-based product 45 mg/day) is “dramatic reduction of their psychiatric symptoms”. Further, the “clinical response (aggression)” value in data set [1] (quetiapine increased from 50 to 300 mg/day, with amphetamine-based product 60 mg/day) was “continued to demonstrate aggression”.

These data come from patent publication US7338948B2, “Use of quetiapine” (AstraZeneca AB, priority 2000, dated 2008).
